Laboratory results from patent publication US12435060B2, “Acylamino bridged heterocyclic compound, and composition and application thereof” (BEIJING SCITECH-MQ PHARMACEUTICALS LIMITED, priority 2019, dated 2025).

Tested on: HT29 cells
Assay: Inhibition of cell necrosis (CCK8 method), induced programmed necrosis of HT29 cells
Type: cell-based
Conditions: Homo sapiens, HT-29; rescue from necrosis induced by TNF-α 20 ng/mL, AT-406 1 μM, Z-VAD-FMK 20 μM; 16-20 hours; CCK-8, OD 450 nm
How it was run: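 Rescue from programmed necrosis was scored by CCK-8 absorbance at 450 nm after 16-20 h of TNF-α (20 ng/mL), AT-406 (1 μM) and Z-VAD-FMK (20 μM) at 37 °C, 5% CO2. HT29 cells had received compound 30 min earlier across nine 4-fold dilutions (top 25000 nM final). IC50 came from % inhibition relative to uninduced and induced-only wells.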

| SMILES | IC50 |
| --- | --- |
| CCC(O)(CC)CCCOc1ccc(C)c(-c2cc(NC(=O)c3nnc(Cc4ccccc4F)[nH]3)ncc2F)c1 [Example 242, N-(4-(5-((4-ethyl-4-hydroxyhexyl)oxy)-2-methylphenyl)-5-fluoropyridin-2-yl)-5-(2-fluorobenzyl)-4H-1,2,4-triazole-3-carboxamide] | ≤ 0.1 µM |
| CCC(O)(CC)CCCOc1ccc(C)c(-c2cc(NC(=O)c3nnc(CC4CCCCC4)[nH]3)ncc2F)c1 [Example 243, 5-(cyclohexylmethyl)-N-(4-(5-((4-ethyl-4-hydroxyhexyl)oxy)-2-methylphenyl)-5-fluoropyridin-2-yl)-4H-1,2,4-triazole-3-carboxamide] | ≤ 0.1 µM |
| CCC(O)(CC)CCCOc1ccc(C)c(-c2cc(NC(=O)c3nnc(Cc4ccccc4F)[nH]3)ncc2Cl)c1 [Example 244, N-(5-chloro-4-(5-((4-ethyl-4-hydroxyhexyl)oxy)-2-methylphenyl)pyridin-2-yl)-5-(2-fluorobenzyl)-4H-1,2,4-triazole-3-carboxamide] | ≤ 0.1 µM |
| CCC(O)(CC)CCCOc1ccc(C)c(-c2cc(NC(=O)c3nnc(CC4CCCCC4)[nH]3)ncc2Cl)c1 [Example 245, N-(5-chloro-4-(5-((4-ethyl-4-hydroxyhexyl)oxy)-2-methylphenyl)pyridin-2-yl)-5-(cyclohexylmethyl)-4H-1,2,4-triazole-3-carboxamide] | ≤ 0.1 µM |
| CCC(O)(CC)CCCOc1ccc(C)c(-c2cc(NC(=O)c3nnc(CC4CCCCC4)[nH]3)ncc2C)c1 [Example 246, 5-(cyclohexylmethyl)-N-(4-(5-((4-ethyl-4-hydroxyhexyl)oxy)-2-methylphenyl)-5-methylpyridin-2-yl)-4H-1,2,4-triazole-3-carboxamide] | 0.1 to 1 µM |
| Cc1ccc(OCCCCC(C)(C)O)cc1-c1cc(NC(=O)c2nnc(Cc3ccccc3F)[nH]2)ncc1Cl [Example 247, N-(5-chloro-4-(5-((5-hydroxyl-5-methylhexyl)oxy)-2-methylphenyl)pyridin-2-yl)-5-(2-fluorobenzyl)-4H-1,2,4-triazole-3-carboxamide] | 0.1 to 1 µM |
| Cc1ccc(OCCCCC(C)(C)O)cc1-c1cc(NC(=O)c2nnc(CC3CCCCC3)[nH]2)ncc1Cl [Example 248, 5-(cyclohexylmethyl)-N-(5-chloro-4-(5-((5-hydroxyl-5-methylhexyl)oxy)-2-methylphenyl)pyridin-2-yl)-4H-1,2,4-triazole-3-carboxamide] | 0.1 to 1 µM |
| Cc1ccc(OCC2CCOCC2)cc1-c1cc(NC(=O)c2nnc(Cc3ccccc3F)[nH]2)ncc1Cl [Example 249, N-(5-chloro-4-(2-methyl-5-((tetrahydro-2H-pyran-4-yl)methoxy)phenyl)pyridin-2-yl)-5-(2-fluorobenzyl)-4H-1,2,4-triazole-3-carboxamide] | 0.1 to 1 µM |
| Cc1ccc(OCC2CCOCC2)cc1-c1cc(NC(=O)c2nnc(CC3CCCCC3)[nH]2)ncc1Cl [Example 250, N-(5-chloro-4-(2-methyl-5-((tetrahydro-2H-pyran-4-yl)methoxy)phenyl)pyridin-2-yl)-5-(cyclohexylmethyl)-4H-1,2,4-triazole-3-carboxamide] | ≤ 0.1 µM |
| Cc1ccc(OCCC2CCOCC2)cc1-c1cc(NC(=O)c2nnc(Cc3ccccc3F)[nH]2)ncc1Cl [Example 251, N-(5-chloro-4-(2-methyl-5-(2-(tetrahydro-2H-pyran-4-yl)ethoxy)phenyl)pyridin-2-yl)-5-(2-fluorobenzyl)-4H-1,2,4-triazole-3-carboxamide] | ≤ 0.1 µM |
| Cc1ccc(OCCC2CCOCC2)cc1-c1cc(NC(=O)c2nnc(CC3CCCCC3)[nH]2)ncc1Cl [Example 252, N-(5-chloro-4-(2-methyl-5-(2-(tetrahydro-2H-pyran-4-yl)ethoxy)phenyl)pyridin-2-yl)-5-(cyclohexylmethyl)-4H-1,2,4-triazole-3-carboxamide] | ≤ 0.1 µM |
| Cc1ccc(OCCC2CCOCC2)cc1-c1cc(NC(=O)c2nnc(Cc3ccccc3F)[nH]2)ncc1C [Example 253, 5-(2-fluorobenzyl)-N-(5-methyl-4-(2-methyl-5-(2-(tetrahydro-2H-pyran-4-yl)ethoxy)phenyl)pyridin-2-yl)-4H-1,2,4-triazole-3-carboxamide] | 0.1 to 1 µM |
| Cc1ccc(OCCC2CCOCC2)cc1-c1cc(NC(=O)c2nnc(CC3CCCCC3)[nH]2)ncc1C [Example 254, 5-(cyclohexylmethyl)-N-(5-methyl-4-(2-methyl-5-(2-(tetrahydro-2H-pyran-4-yl)ethoxy)phenyl)pyridin-2-yl)-4H-1,2,4-triazole-3-carboxamide] | 0.1 to 1 µM |
| CC(C)(O)CCCOc1ccc(C(F)(F)F)c(-c2ccnc(NC(=O)c3nnc(Cc4ccccc4F)[nH]3)c2)c1 [Example 255, 5-(2-fluorobenzyl)-N-(4-(5-((4-hydroxy-4-methylpentyl)oxy)-2-(trifluoromethyl)phenyl)pyridin-2-yl)-4H-1,2,4-triazole-3-carboxamide] | ≤ 0.1 µM |
| CC(C)(O)CCCOc1ccc(C(F)(F)F)c(-c2ccnc(NC(=O)c3nnc(Cc4cccc(F)c4)[nH]3)c2)c1 [Example 256, 5-(3-fluorobenzyl)-N-(4-(5-((4-hydroxy-4-methylpentyl)oxy)-2-(trifluoromethyl)phenyl)pyridin-2-yl)-4H-1,2,4-triazole-3-carboxamide] | ≤ 0.1 µM |
| CC(C)(O)CCCOc1ccc(C(F)(F)F)c(-c2ccnc(NC(=O)c3nnc(Cc4ccc(F)cc4)[nH]3)c2)c1 [Example 257, 5-(4-fluorobenzyl)-N-(4-(5-((4-hydroxy-4-methylpentyl)oxy)-2-(trifluoromethyl)phenyl)pyridin-2-yl)-4H-1,2,4-triazole-3-carboxamide] | ≤ 0.1 µM |
| CC(C)(O)CCCOc1ccc(C(F)(F)F)c(-c2ccnc(NC(=O)c3nnc(CC4CCCC4)[nH]3)c2)c1 [Example 258, 5-(cyclopentylmethyl)-N-(4-(5-((4-hydroxy-4-methylpentyl)oxy)-2-(trifluoromethyl)phenyl)pyridin-2-yl)-4H-1,2,4-triazole-3-carboxamide] | ≤ 0.1 µM |
| CC(C)(O)CCCOc1ccc(C(F)(F)F)c(-c2ccnc(NC(=O)c3nnc(CC4CCCCC4)[nH]3)c2)c1 [Example 259, 5-(cyclohexylmethyl)-N-(4-(5-((4-hydroxy-4-methylpentyl)oxy)-2-(trifluoromethyl)phenyl)pyridin-2-yl)-4H-1,2,4-triazole-3-carboxamide] | ≤ 0.1 µM |
| CCC(O)(CC)CCCOc1ccc(C(F)(F)F)c(-c2ccnc(NC(=O)c3nnc(Cc4ccccc4)[nH]3)c2)c1 [Example 260, 5-benzyl-N-(4-(5-((4-ethyl-4-hydroxyhexyl)oxy)-2-(trifluoromethyl)phenyl)pyridin-2-yl)-4H-1,2,4-triazole-3-carboxamide] | ≤ 0.1 µM |
| CCC(O)(CC)CCCOc1ccc(C(F)(F)F)c(-c2ccnc(NC(=O)c3nnc(Cc4ccccc4F)[nH]3)c2)c1 [Example 261, 5-(2-fluorobenzyl)-N-(4-(5-((4-ethyl-4-hydroxyhexyl)oxy)-2-(trifluoromethyl)phenyl)pyridin-2-yl)-4H-1,2,4-triazole-3-carboxamide] | ≤ 0.1 µM |
| CCC(O)(CC)CCCOc1ccc(C(F)(F)F)c(-c2ccnc(NC(=O)c3nnc(CC4CCCC4)[nH]3)c2)c1 [Example 262, 5-(cyclopentylmethyl)-N-(4-(5-((4-ethyl-4-hydroxyhexyl)oxy)-2-(trifluoromethyl)phenyl)pyridin-2-yl)-4H-1,2,4-triazole-3-carboxamide] | ≤ 0.1 µM |
